Here are results for five molecules from PubChem BioAssay AID2060900 (Molecular Pharmacology Branch, DTP, NCI, 2025).

The test relates to 521955-158-R2-J5-PDC complex spheroids, viability. Put plainly: Anticancer human tumor 521955-158-R2-J5-PDC patient-derived pancreatic carcinoma cell line growth inhibition [RAS]. The following applies: for viability, T/C: stronger effect = lower value. From the text: RAS pathway inhibitors in Combinations in Complex Spheroids
A high-throughput screen of multi-cell type tumor spheroids was designed to identify active combinations of RAS pathway inhibitors and targeted small molecules. Complex spheroids include a stromal component modeled by human endothelial cells (HUVEC) and fibroblasts modeled by human mesenchymal stem cells (MSCs). The concentration ranges selected for each drug and investigational agent were based upon clinically achievable concentrations if the clinical Cmax of the agent was known.
Compounds. The drugs and investigational agents: abemaciclib (NSC768073), cobimetinib (NSC768068), divarasib (GDC6063, NSC841802), docetaxel (NSC628503), GDC-1971 (RLY-1971, NSC841576), gemcitabine (NSC613327), inavolisib (NSC800729), ipatasertib (NSC767898), KB-0742 (NSC834161), MRTX-1133 (NSC836407), osimertinib (NSC779217), RMC-4630 (NSC839698), RMC-6236 (NSC851965), RMC-6291 (NSC852671), Ro-3306 (NSC812927), sapanisertib (NSC764658), SN-38 (NSC673596), staurosporine (NSC755774), SY5609 (NSC837396), and tovorafenib (DAY101, NSC766906), were obtained from the National Cancer Institute (NCI) Developmental Therapeutics Program Chemical Repository. The FDA-approved anticancer drug set is available from the NCI Developmental Therapeutics Program. […] The stock solutions were prepared in dimethyl sulfoxide (DMSO, Sigma-Aldrich, St. Louis, MO, cat. D2650) at 800-fold the tested concentration and stored at -70 degrees C prior to their use. All drugs and investigational agents were tested over a range starting from a high concentration at or near the clinical Cmax and decreasing in half-log increments. If the clinical Cmax for an agent had not been determined, the highest concentration tested was 10 microM.
Cell Culture. All cells were maintained in an incubator at 37 degrees C and 5% CO2 with 95% humidity. The PDC lines were cultured according to standard operating procedures established by the NCI PDMR. All PDCs were thawed and cultured in Matrigel-coated flasks prepared with a working solution of 1X Ham's F-12 nutrient mix, without supplementation (Invitrogen, Waltham, MA, cat. 11765054), 100 U/mL penicillin-streptomycin (Invitrogen, cat. 15140122), and 2.5% Matrigel (Corning Inc., Corning, NY, cat. 354248) for the first three passages. The 362531-283-R-J2-PDC and 782815-120-R-J1-PDC lines were cultured in 6C/Colon 1B media, which includes advanced DMEM/F-12 (Thermo Fisher Scientific, cat. 12634028), 10 mM HEPES (Thermo Fisher Scientific, cat. 15630080), 1X GlutaMAX supplement (Thermo Fisher Scientific, cat. 35050061), 0.1 mg/mL primocin (InvivoGen, San Diego, CA, cat. ant-pm-2), 10% defined fetal bovine serum, heat inactivated (HyClone Laboratories Inc., Logan, UT, cat. SH30070.03HI), 50% L-WRN conditioned media (ATCC, cat. CRL-3276), 1.25 mM N-Acetyl-L-cysteine (Sigma-Aldrich, cat. A9165), 10 mM nicotinamide (Sigma-Aldrich, cat. N0636), 1X B-27 supplement (Thermo Fisher Scientific, cat. 17504044), 1X N-2 supplement (Thermo Fisher Scientific, cat. 17502048), 50 ng/mL human EGF (Thermo Fisher Scientific, cat. PHG0311), and 10 microM Y-27632 dihydrochloride (Tocris Bioscience, cat. 1254). The K12877-001-R-J1-PDC line was cultured in 6I media, which includes all 6C/Colon 1B media plus 10 ng/mL human FGF-10 (PeproTech, cat. 100-26), 1 ng/mL human FGF-2 (PeproTech, cat. 100-18B), 1 µM prostaglandin E2 (Tocris Bioscience, cat. 2296), […] hydrocortisone (Sigma-Aldrich, cat. H4001), and […] bovine insulin (Sigma-Aldrich, cat. I6634). The K86415-001-R-J1-PDC line was cultured in 6D media, which includes all 6C/Colon 1B media components minus the L-WRN conditioned media. The 485176-168-R4-J1-PDC was cultured in PANC media, which includes all 6C/Colon 1B media plus 100 ng/mL human FGF-10 (PeproTech, cat. 100-26), 500 nM SB-431542 (Selleckchem, cat. S1067), and 10 nM gastrin (Tocris Bioscience, cat. 3006). […]

Values joined by “and” are separate entries in the source; they are usually repeats but may differ in a detail not shown here. Equal values may be shown once. Where only a bound is given, the exact number is not on record here.
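Further: compound exposure lasted seven days before the viability read.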
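Wherever viability, T/C is given: spheroids also contain HUVEC endothelial cells and mesenchymal stem cells as stroma.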

Take `C=CC(=O)N1CCN(c2nc(OCC3CCCN3C)nc3c(F)c(-c4nc(N)cc(C)c4C(F)(F)F)c(Cl)cc23)C(C)C1` (stereo unspecified): the IC50 (commonly the concentration at which inhibition is half-maximal) (compound alone, run of 06/10/2024) was above 1 µM and the half-maximal inhibitory concentration (IC50) (curve of compound) is above 1 µM.

Turning to `CC(=O)OC12COC1CC(O)C1(C)C(=O)C(O)C3=C(C)C(OC(=O)C(O)C(NC(=O)OC(C)(C)C)c4ccccc4)CC(O)(C(OC(=O)c4ccccc4)C21)C3(C)C` (stereo unspecified), the viability, T/C (as a rule, the result in the treated group divided by that in the control group, in per cent) (compound 0.0316 µM) was 38.4% [middle of 4 runs]; the viability, T/C (compound 0.316 µM) was 27.9% [middle of 4 runs]; the viability, T/C (compound 1 µM) was 35% [middle of 4 runs]; the viability, T/C (compound 3.16 µM) was 42.6% [middle of 4 runs]. Also, the half-maximal inhibitory concentration (IC50) (curve of compound) was below 0.0316 µM.

As for `CC(Nc1ccc2c(c1)OCCn1cc(N3C(=O)OCC3C(F)F)nc1-2)C(N)=O` (stereo unspecified), the viability, T/C is, setting by setting: (compound 0.1 µM) 57.5% [middle of 4 runs]; (compound 0.316 µM) 41.1% [middle of 4 runs]; (compound 1 µM) 31% [middle of 4 runs]; (compound 10 µM) 23.5% [middle of 4 runs]. Further, the IC50 (curve of compound) was 136 nM [middle of 4 runs].

Consider `C[C@@H](NC(=O)c1ncnc(N)c1Cl)c1ncc(C(=O)Nc2cc(C(F)(F)F)c(Cl)cn2)s1`, for which the viability, T/C (compound 10 µM) is 60.9% [middle of 4 runs]. Besides, the 50% inhibitory concentration (IC50) (curve of compound) was > 10 µM and 5.73 µM.

As for `NC1c2ccccc2OC12CCN(c1cnc3c(N4CCCc5ncccc54)n[nH]c3n1)CC2` (stereo unspecified), the viability, T/C was 67.5% [middle of 4 runs] (compound 0.0316 µM); 58.8% [middle of 4 runs] (compound 0.1 µM); 55.2% [middle of 4 runs] (compound 0.316 µM); 53.2% [middle of 4 runs] (compound 1 µM); 54.8% [middle of 4 runs] (compound 3.16 µM); 61.6% [middle of 4 runs] (compound 10 µM). The 50% inhibitory concentration (IC50) (curve of compound) was > 10 µM and 1.72 µM.
